Results from US11787825B2 (priority 2021, dated 2023).
Values after ≈ are worked out from the molar mass of the structure shown. Read-outs that look alike come from different tables or passages of the source. Marks after values point to notes of the source that are not given here.

Tests used:
[1] = physchem; conditions: 25 °C, thermodynamic from solid
[2] = Beagle, in vivo, po; for Dog F % (suspension): pH 2
[3] = fasted state simulated intestinal fluid (FaSSIF), fassif
[4] = fed state simulated intestinal fluid (FeSSIF), fessif
[5] = 0.1N HCL, 1.0% DMSO, 24-hour incubation at ambient temperature, maximum theoretical compound concentration 100 μM
[6] = 1×PBS buffer (pH 7.4), 1.0% DMSO, 24-hour incubation at ambient temperature, maximum theoretical compound concentration 100 μM

Compound | solubility [1, 3] [mg/mL] | solubility [1, 4] [mg/mL] | pH 2 solubility [5] [μM] | pH 7 solubility [6] [μM] | Dog F % (solution) [2] | Dog F % (suspension) [2] [%] | solubility ([1]; fassif) [mg/mL] | solubility ([1]; fessif) [mg/mL] | pH 2 solubility (pH 2) | pH 7 solubility (pH 7.4)
CN(CCCC(=O)N(c1nn(CC(F)(F)F)c2c(-c3ccc(C#CC(C)(C)S(C)(=O)=O)nc3[C@H](Cc3cc(F)cc(F)c3)NC(=O)Cn3nc(C(F)(F)F)c4c3C(F)(F)[C@@H]3C[C@H]43)ccc(Cl)c12)S(C)(=O)=O)C(=O)OCOP(=O)(O)O [Compound 32, (phosphonooxy)methyl (4-(N-(4-chloro-7-(2-((S)-1-(2-((3bS,4aR)-5,5-difluoro-3-(trifluoromethyl)-3b,4,4a,5-tetrahydro-111-cyclopropa[3,4]cyclopenta [1,2-c]pyrazol-1-yl)acetamido)-2-(3,5-difluorophenyl)ethyl)-6-(3-methyl-3-(methylsulfonyl)but-1-yn-1-yl)pyridin-3-yl)-1-(2,2,2-trifluoroethyl)-1H-indazol-3-yl)methylsulfonamido)-4-oxobutyl)(methyl)carbamate] | 0.194 (≈ 159 µM) | 0.21 (≈ 172 µM) | 1 | 100 | 31^b % |  |  |  |  | 
CC(C)(C#Cc1ccc(-c2ccc(Cl)c3c(N(C(=O)CCCNC(=O)OCOP(=O)(O)O)S(C)(=O)=O)nn(CC(F)(F)F)c23)c([C@H](Cc2cc(F)cc(F)c2)NC(=O)Cn2nc(C(F)(F)F)c3c2C(F)(F)[C@@H]2C[C@H]32)n1)S(C)(=O)=O [Compound 33, (phosphonooxy)methyl (4-(N-(4-chloro-7-(2-((S)-1-(2-((3bS,4aR)-5,5-difluoro-3-(trifluoromethyl)-3b,4,4a,5-tetrahydro-111-cyclopropa[3,4]cyclopenta[1,2-c]pyrazol-1-yl)acetamido)-2-(3,5-difluorophenyl)ethyl)-6-(3-methyl-3-(methylsulfonyl)but-1-yn-1-yl)pyridin-3-yl)-1-(2,2,2-trifluoroethyl)-1H-indazol-3-yl)methylsulfonamido)-4-oxobutyl)carbamate] | 0.326 (≈ 270 µM) | 0.3 (≈ 248 µM) | 1 | 75 | 33^b % | 17 |  |  |  | 
CC(C)(C#Cc1ccc(-c2ccc(Cl)c3c(N(C(=O)CCC(=O)OCOP(=O)(O)O)S(C)(=O)=O)nn(CC(F)(F)F)c23)c([C@H](Cc2cc(F)cc(F)c2)NC(=O)Cn2nc(C(F)(F)F)c3c2C(F)(F)[C@@H]2C[C@H]32)n1)S(C)(=O)=O [Compound 28, (phosphonooxy)methyl 4-(N-(4-chloro-7-(2-((S)-1-(2-((3bS,4aR)-5,5-difluoro-3-(trifluoromethyl)-3b,4,4a,5-tetrahydro-1H-cyclopropa[3,4]cyclopenta[1,2-c]pyrazol-1-yl)acetamido)-2-(3,5-difluorophenyl)ethyl)-6-(3-methyl-3-(methylsulfonyl)but-1-yn-1-yl)pyridin-3-yl)-1-(2,2,2-trifluoroethyl)-1H-indazol-3-yl)methylsulfonamido)-4-oxobutanoate] | 0.555 (≈ 471 µM) | 0.319 (≈ 271 µM) | 1 | 86 | 51^b % |  |  |  |  | 
CC(C)(CCN(CC(=O)O)C(=O)OCOP(=O)(O)O)C(=O)N(c1nn(CC(F)(F)F)c2c(-c3ccc(C#CC(C)(C)S(C)(=O)=O)nc3[C@H](Cc3cc(F)cc(F)c3)NC(=O)Cn3nc(C(F)(F)F)c4c3C(F)(F)[C@@H]3C[C@H]43)ccc(Cl)c12)S(C)(=O)=O [Compound 43, N-(4-(N-(4-chloro-7-(2-((S)-1-(2-((3bS,4aR)-5,5-difluoro-3-(trifluoromethyl)-3b,4,4a,5-tetrahydro-1H-cyclopropa[3,4]cyclopenta[1,2-c]pyrazol-1-yl)acetamido)-2-(3,5-difluorophenyl)ethyl)-6-(3-methyl-3-(methylsulfonyl)but-1-yn-1-yl)pyridin-3-yl)-1-(2,2,2-trifluoroethyl)-1H-indazol-3-yl)methylsulfonamido)-3,3-dimethyl-4-oxobutyl)-N-(((phosphonooxy)methoxy)carbonyl)glycine] | 2.9 (≈ 2250 µM) | > 5.77 | 2 | 100 |  | 23 |  |  |  | 
CC(C)(C#Cc1ccc(-c2ccc(Cl)c3c(N(C(=O)CCCN(CC(=O)O)C(=O)OCOP(=O)(O)O)S(C)(=O)=O)nn(CC(F)(F)F)c23)c([C@H](Cc2cc(F)cc(F)c2)NC(=O)Cn2nc(C(F)(F)F)c3c2C(F)(F)[C@@H]2C[C@H]32)n1)S(C)(=O)=O [Compound 30, N-(4-(N-(4-chloro-7-(2-((S)-1-(2-((3bS,4aR)-5,5-difluoro-3-(trifluoromethyl)-3b,4,4a,5-tetrahydro-1H-cyclopropa[3,4]cyclopenta[1,2-c]pyrazol-1-yl)acetamido)-2-(3,5-difluorophenyl)ethyl)-6-(3-methyl-3-(methylsulfonyl)but-1-yn-1-yl)pyridin-3-yl)-1-(2,2,2-trifluoroethyl)-1H-indazol-3-yl)methylsulfonamido)-4-oxobutyl)-N-(((phosphonooxy)methoxy)carbonyl)glycine] | > 1.1 | 5.83 (≈ 4600 µM) | 1 | 100 | 18^c % | 18 |  |  |  | 
CN(C(=O)N(c1nn(CC(F)(F)F)c2c(-c3ccc(C#CC(C)(C)S(C)(=O)=O)nc3[C@H](Cc3cc(F)cc(F)c3)NC(=O)Cn3nc(C(F)(F)F)c4c3C(F)(F)[C@@H]3C[C@H]43)ccc(Cl)c12)S(C)(=O)=O)c1ncccc1COP(=O)(O)O [Compound 53, (2-(3-(4-chloro-7-(2-((S)-1-(2-((3bS,4aR)-5,5-difluoro-3-(trifluoromethyl)-3b,4,4a,5-tetrahydro-1H-cyclopropa[3,4]cyclopenta[1,2-c]pyrazol-1-yl)acetamido)-2-(3,5-difluorophenyl)ethyl)-6-(3-methyl-3-(methylsulfonyl)but-1-yn-1-yl)pyridin-3-yl)-1-(2,2,2-trifluoroethyl)-1H-indazol-3-yl)-1-methyl-3-(methylsulfonyl)ureido)pyridin-3-yl)methyl dihydrogen phosphate] |  |  |  |  |  | 5 | 0.391 | 0.958 | 2/78 μM | 2/78 μM
Cc1cc(C(=O)O)cc(OP(=O)(O)O)c1C(C)(C)CC(=O)N(c1nn(CC(F)(F)F)c2c(-c3ccc(C#CC(C)(C)S(C)(=O)=O)nc3[C@H](Cc3cc(F)cc(F)c3)NC(=O)Cn3nc(C(F)(F)F)c4c3C(F)(F)[C@@H]3C[C@H]43)ccc(Cl)c12)S(C)(=O)=O [Compound 49, 4-(4-(N-(4-chloro-7-(2-((S)-1-(2-((3bS,4aR)-5,5-difluoro-3-(trifluoromethyl)-3b,4,4a,5-tetrahydro-1H-cyclopropa[3,4]cyclopenta[1,2-c]pyrazol-1-yl)acetamido)-2-(3,5-difluorophenyl)ethyl)-6-(3-methyl-3-(methylsulfonyl)but-1-yn-1-yl)pyridin-3-yl)-1-(2,2,2-trifluoroethyl)-1H-indazol-3-yl)methylsulfonamido)-2-methyl-4-oxobutan-2-yl)-3-methyl-5-(phosphonooxy)benzoic acid] |  |  |  |  |  | 20 | 0.384 (≈ 299 µM) | 0.39 (≈ 304 µM) | 3/100 μM | 3/100 μM
